Results as given in ChEMBL document CHEMBL2413072, “Synthesis and in vitro anticancer studies of novel C-2 arylidene congeners of lantadenes” (2013).

What was measured:
Format in all cases: functional
[1] = system: NCI-H460; experiment: Growth inhibition of human NCI-H460 cells by sulforhodamine B assay
[2] = system: HOP-92; experiment: Growth inhibition of human HOP92 cells by sulforhodamine B assay
[3] = system: CCRF-CEM; experiment: Growth inhibition of human CCRF-CEM cells by sulforhodamine B assay
[4] = system: OVCAR-3; experiment: Growth inhibition of human OVCAR3 cells assessed as cell growth at 10^-8 M by sulforhodamine B assay; settings: read-out: Activity
[5] = system: SNB-19; experiment: Growth inhibition of human SNB19 cells assessed as cell growth at 10^-8 M by sulforhodamine B assay; settings: read-out: Activity
[6] = system: KM12; experiment: Growth inhibition of human KM12 cells assessed as cell growth at 10^-8 M by sulforhodamine B assay; settings: read-out: Activity
[7] = Growth inhibition of human HCC2998 cells assessed as cell growth at 10^-8 M by sulforhodamine B assay; settings: HCC 2998, read-out: Activity
[8] = system: HCT-116; experiment: Growth inhibition of human HCT116 cells assessed as cell growth at 10^-8 M by sulforhodamine B assay; settings: read-out: Activity
[9] = system: NCI-H23; experiment: Growth inhibition of human NCI-H23 cells assessed as cell growth at 10^-8 M by sulforhodamine B assay; settings: read-out: Activity
[10] = system: SR; experiment: Growth inhibition of human SR cells assessed as cell growth at 10^-8 M by sulforhodamine B assay; settings: read-out: Activity
[11] = system: K562; experiment: Growth inhibition of human K562 cells assessed as cell growth at 10^-8 M by sulforhodamine B assay; settings: read-out: Activity
[12] = system: 786-0; experiment: Growth inhibition of human 786-0 cells by sulforhodamine B assay
[13] = system: IGROV-1; experiment: Growth inhibition of human IGROV1 cells by sulforhodamine B assay
[14] = system: UACC-257; experiment: Growth inhibition of human UACC257 cells by sulforhodamine B assay
[15] = system: M14; experiment: Growth inhibition of human M14 cells by sulforhodamine B assay
[16] = system: SNB-75; experiment: Growth inhibition of human SNB75 cells by sulforhodamine B assay
[17] = system: CAKI-1; experiment: Growth inhibition of human CAKI-1 cells assessed as cell growth at 10^-4 M by sulforhodamine B assay; settings: read-out: Activity
[18] = system: SK-OV-3; experiment: Growth inhibition of human SKOV3 cells assessed as cell growth at 10^-4 M by sulforhodamine B assay; settings: read-out: Activity
[19] = system: SK-MEL-2; experiment: Growth inhibition of human SK-MEL-2 cells assessed as cell growth at 10^-4 M by sulforhodamine B assay; settings: read-out: Activity
[20] = system: SF-295; experiment: Growth inhibition of human SF295 cells assessed as cell growth at 10^-4 M by sulforhodamine B assay; settings: read-out: Activity
[21] = system: RPMI-8226; experiment: Growth inhibition of human RPMI8226 cells assessed as cell growth at 10^-4 M by sulforhodamine B assay; settings: read-out: Activity
[22] = system: HL-60(TB); experiment: Growth inhibition of human HL-60(TB) cells assessed as cell growth at 10^-4 M by sulforhodamine B assay; settings: read-out: Activity
[23] = system: UO-31; experiment: Growth inhibition of human UO31 cells assessed as cell growth at 10^-6 M by sulforhodamine B assay; settings: read-out: Activity
[24] = system: A498; experiment: Growth inhibition of human A498 cells assessed as cell growth at 10^-6 M by sulforhodamine B assay; settings: read-out: Activity
[25] = system: SK-MEL-5; experiment: Growth inhibition of human SK-MEL-5 cells assessed as cell growth at 10^-6 M by sulforhodamine B assay; settings: read-out: Activity
[26] = system: MDA-MB-435; experiment: Growth inhibition of human MDA-MB-435 cells assessed as cell growth at 10^-6 M by sulforhodamine B assay; settings: read-out: Activity
[27] = system: SF-539; experiment: Growth inhibition of human SF539 cells assessed as cell growth at 10^-6 M by sulforhodamine B assay; settings: read-out: Activity
[28] = system: SF-268; experiment: Growth inhibition of human SF268 cells assessed as cell growth at 10^-6 M by sulforhodamine B assay; settings: read-out: Activity
[29] = system: HOP-62; experiment: Growth inhibition of human HOP62 cells assessed as cell growth at 10^-6 M by sulforhodamine B assay; settings: read-out: Activity
[30] = system: HL-60(TB); experiment: Growth inhibition of human HL-60(TB) cells assessed as cell growth at 10^-6 M by sulforhodamine B assay; settings: read-out: Activity
[31] = system: MDA-MB-231; experiment: Growth inhibition of human MDA-MB-231 cells assessed as cell growth at 10^-7 M by sulforhodamine B assay; settings: read-out: Activity
[32] = system: SK-MEL-28; experiment: Growth inhibition of human SK-MEL-28 cells assessed as cell growth at 10^-7 M by sulforhodamine B assay; settings: read-out: Activity
[33] = system: M14; experiment: Growth inhibition of human M14 cells assessed as cell growth at 10^-7 M by sulforhodamine B assay; settings: read-out: Activity
[34] = system: A549; experiment: Growth inhibition of human A549/ATCC cells assessed as cell growth at 10^-7 M by sulforhodamine B assay; settings: read-out: Activity
[35] = system: DU-145; experiment: Growth inhibition of human DU145 cells assessed as cell growth at 10^-8 M by sulforhodamine B assay; settings: read-out: Activity
[36] = system: TK-10; experiment: Growth inhibition of human TK10 cells assessed as cell growth at 10^-8 M by sulforhodamine B assay; settings: read-out: Activity
[37] = system: 786-0; experiment: Growth inhibition of human 786-0 cells assessed as cell growth at 10^-8 M by sulforhodamine B assay; settings: read-out: Activity
[38] = system: A498; experiment: Growth inhibition of human A498 cells assessed as cell growth at 10^-8 M by sulforhodamine B assay; settings: read-out: Activity
[39] = system: SK-OV-3; experiment: Growth inhibition of human SKOV3 cells assessed as cell growth at 10^-8 M by sulforhodamine B assay; settings: read-out: Activity
[40] = system: OVCAR-4; experiment: Growth inhibition of human OVCAR4 cells assessed as cell growth at 10^-8 M by sulforhodamine B assay; settings: read-out: Activity
[41] = read-out: LC50 (the source's name)
[42] = read-out: pLC50 (the source's name) (converted)

## CC(C)=CC(=O)O[C@@H]1CC(C)(C)C[C@H]2C3=CC[C@@H]4[C@@]5(C)CC[C@H](O)C(C)(C)[C@@H]5CC[C@@]4(C)[C@]3(C)CC[C@@]12C(=O)O [Reduced Lantadene B]
[1]; read-out: GI50
  GI50: 3.07 µM
[1]; read-out: LC50
  LC50: > 100 µM
[1]; read-out: TGI
  TGI: 66.8 µM
[1]; read-out: pGI50 (converted)
  GI50: 3.09 µM
[1]; read-out: pLC50 (converted)
  LC50: > 100 µM
[1]; read-out: pTGI (converted)
  TGI: 66.1 µM
[2]; read-out: GI50
  GI50: 1.51 µM
[2]; [41]
  CC50: 16.3 µM
[2]; read-out: TGI
  TGI: 4.23 µM
[2]; read-out: pGI50 (converted)
  GI50: 1.51 µM
[2]; [42]
  CC50: 16.2 µM
[2]; read-out: pTGI (converted)
  TGI: 4.27 µM
[3]; read-out: GI50
  GI50: 2.83 µM
[3]; [41]
  CC50: > 100 µM
[3]; read-out: TGI
  TGI: 34.8 µM
[3]; read-out: pGI50 (converted)
  GI50: 2.82 µM
[3]; [42]
  CC50: > 100 µM
[3]; read-out: pTGI (converted)
  TGI: 34.7 µM
[4]
  growth at 0.01 µM: 104%
[5]
  growth at 0.01 µM: 93%
[6]
  growth at 0.01 µM: 100%
[7]
  growth at 0.01 µM: 99%
[8]
  growth at 0.01 µM: 99%
[9]
  growth at 0.01 µM: 95%
[10]
  growth at 0.01 µM: 107%
[11]
  growth at 0.01 µM: 114%
[12]; read-out: GI50
  GI50: 3.06 µM
[12]; [41]
  CC50: 50.7 µM
[12]; read-out: TGI
  TGI: 11.5 µM
[12]; read-out: pGI50 (converted)
  GI50: 3.09 µM
[12]; [42]
  CC50: 51.3 µM
[12]; read-out: pTGI (converted)
  TGI: 11.5 µM
[13]; read-out: GI50
  GI50: 6.35 µM
[13]; [41]
  CC50: > 100 µM
[13]; read-out: TGI
  TGI: 29.4 µM
[13]; read-out: pGI50 (converted)
  GI50: 6.31 µM
[13]; [42]
  CC50: > 100 µM
[13]; read-out: pTGI (converted)
  TGI: 29.5 µM
[14]; read-out: GI50
  GI50: 14.5 µM
[14]; [41]
  CC50: > 100 µM
[14]; read-out: TGI
  TGI: 45.6 µM
[14]; read-out: pGI50 (converted)
  GI50: 14.5 µM
[14]; [42]
  CC50: > 100 µM
[14]; read-out: pTGI (converted)
  TGI: 45.7 µM
[15]; read-out: GI50
  GI50: 7.71 µM
[15]; [41]
  CC50: 67.8 µM
[15]; read-out: TGI
  TGI: 24.8 µM
[15]; read-out: pGI50 (converted)
  GI50: 7.76 µM
[15]; [42]
  CC50: 67.6 µM
[15]; read-out: pTGI (converted)
  TGI: 24.5 µM
[16]; read-out: GI50
  GI50: 12.7 µM
[16]; [41]
  CC50: > 100 µM
[16]; read-out: TGI
  TGI: 41.2 µM
[16]; read-out: pGI50 (converted)
  GI50: 12.9 µM
[16]; [42]
  CC50: > 100 µM
[16]; read-out: pTGI (converted)
  TGI: 40.7 µM
[17]
  growth at 100 µM: -9%
[18]
  growth at 100 µM: -62%
[19]
  growth at 100 µM: -71%
[20]
  growth at 100 µM: -71%
[21]
  growth at 100 µM: -19%
[22]
  growth at 100 µM: -52%
[23]
  growth at 1 µM: 89%
[24]
  growth at 1 µM: 79%
[25]
  growth at 1 µM: 77%
[26]
  growth at 1 µM: 95%
[27]
  growth at 1 µM: 92%
[28]
  growth at 1 µM: 95%
[29]
  growth at 1 µM: 88%
[30]
  growth at 1 µM: 96%
[31]
  growth at 0.1 µM: 97%
[32]
  growth at 0.1 µM: 100%
[33]
  growth at 0.1 µM: 90%
[34]
  growth at 0.1 µM: 79%
[35]
  growth at 0.01 µM: 101%
[36]
  growth at 0.01 µM: 92%
[37]
  growth at 0.01 µM: 97%
[38]
  growth at 0.01 µM: 84%
[39]
  growth at 0.01 µM: 102%
[40]
  growth at 0.01 µM: 100%
